In patent US12439944B2, “3-hydroxybutyrate compounds for use in reducing liver fat” (TDeltaS Limited, priority 2017, dated 2025):

Legend:
[1] = Blood (R)-3-hydroxybutyrate level after oral administration; type: in vivo; details: for circulating levels of (R)-3-hydroxybutyrate in the blood: general statement; for uptake in the gut: upon consumption of a drink
Experimental: At a dose of 1 g/kg of body weight of the subject, the blood (R)-3-hydroxybutyrate concentration is suitably at least 4 mM, preferably 5 mM. Upon oral administration of monoester of 1.5 g/kg of body weight of the subject, the blood (R)-3-hydroxybutyrate concentration is suitably at least 7 mM, preferably at least 8 mM, especially at least 9 mM. A dosing regime comprises multiple drinks consumed separately.
Blood levels of (R)-3-hydroxybutyrate may be determined by commercially available testing kits, for example, (R)-3-hydroxybutyrate can be measured on whole blood using a handheld monitor and reagent strips (Precision Xtra, Abbott Diabetes Care, UK).

[2] = Body weight change after five-day ketone ester drink regime; type: in vivo, human; details: 393 mg/kg body weight 3 times per day for 5 days
Experimental: Three obese subjects (BMI 33±3 kg/m^2) and seven lean subjects (BMI 23±2 kg/m^2), matched for age, gender, diabetes duration, treatment and HBA1c, underwent a ^1H-MRS scan for quantification of liver steatosis. All subjects were weighed and underwent a treatment regime for five days in which each subject consumed three drinks per day containing 0.393 g/kg body weight of (R)-3-hydroxybutyrate-R-1,3-butanediol monoester, made up to a final volume of 3.3 ml/kg body weight. […] The subjects were not asked to change their normal diet, but did keep diet diaries. Subjects lost 1.3 kg over the five-day period, irrespective of their starting body weight. The weight loss in 7 lean subjects (FIG. 1a) and 3 obese subjects (FIG. 1b) was the same, 1.3 kg, after drinking 393 mg/kg body weight (R)-3-hydroxybutyrate-(R)-1,3 butanediol monoester (ΔG®) 3 times per day for 5 days.

liver fat [3] = assay: 1H Magnetic Resonance Spectroscopy (MRS) of liver, quantification of liver fat; type: in vivo, human; details: for liver fat (hepatic triglyceride relative to water): lean subjects; for liver triglyceride level: obese subjects
Experimental: Three obese subjects (BMI 33±3 kg/m^2) and seven lean subjects (BMI 23±2 kg/m^2), matched for age, gender, diabetes duration, treatment and HBA1c, underwent a ^1H-MRS scan for quantification of liver steatosis. All subjects were weighed and underwent a treatment regime for five days in which each subject consumed three drinks per day containing 0.393 g/kg body weight of (R)-3-hydroxybutyrate-R-1,3-butanediol monoester, made up to a final volume of 3.3 ml/kg body weight. […] Liver ^1H-MRS was performed on each of the subjects at the beginning and end of the 5 days to determine the change in liver fat. The ^1H-MRS measurements were carried out on a 3 T Siemens Tim Trio using a whole-body coil and 6-channel anterior plus 24-channel posterior phased-array coils for signal receiving. To obtain hepatic ^1H-MRS, an 8-ml voxel (2×2×2) was positioned in the liver, avoiding gross vascular, biliary structures and adipose tissue depots. Spectra, with and without water suppression, were obtained to calculate hepatic triglyceride content as a percentage relative to water (triglyceride/water×100). A calibration pulse sequence was implemented to evaluate the optimal water suppression pulse scaling factor. Individual coil signals were combined within Matlab using specifically written modules. The water-suppressed scans were constructively averaged, including frequency correction. Spectra were quantified using the Advanced Method of Accurate, Robust and Efficient Spectroscopic ([…]) fitting algorithm. Metabolite peaks (including lipid/triglycerides) were analyzed and prior knowledge was used for all peak locations by using soft constraints. All peaks were fitted using Lorentzian lineshapes.

liver fat [4] = assay: Reduction of liver fat, general statement; type: in vivo
[5] = end of the 5 days, 393 mg/kg 3 times per day

Row | Compound | period of raised (R)-3-hydroxybutyrate concentrations ([1]; compared with ketone salts) | circulating levels of (R)-3-hydroxybutyrate in the blood [1] | uptake in the gut [1] | weight loss ([2]; 3 obese subjects) [kg] | weight loss ([2]; 7 lean subjects) [kg] | change in liver fat (liver fat [3]; 7 lean subjects, 393 mg/kg 3 times per day for 5 days) | liver fat (hepatic triglyceride relative to water) (liver fat [3]; beginning of the 5 days) [%] | liver fat (hepatic triglyceride relative to water) (liver fat [3]; [5]) [%] | liver triglyceride level (liver fat [3]; beginning of the 5 days) [%] | liver triglyceride level (liver fat [3]; [5]) [%] | effect on liver fat (liver fat [4])
1 | C[C@@H](O)CCOC(=O)C[C@@H](C)O [(R)-3-hydroxybutyrate (R)-1,3-butanediol monoester] | longer period than ketone salts | high circulating levels | surprisingly high level of uptake in the gut | 1.3 | 1.3 | no loss of liver fat | 2.3 | 2.5 | 17.5 | 14.1 | reduce liver fat
2 | (R)-3-hydroxybutyrate-glycerol partial ester | – | high circulating levels | surprisingly high level of uptake in the gut | – | – | – | – | – | – | – | reduce liver fat
